Test [1] deals with EGFR del19/C797S (Homo sapiens, UniProt P00533, C797S/DEL746-750). Kind of test: Biochemical EGFR kinase assay (Lance Ultra TR-FRET), double mutant del19/C797S. The method, boiled down:
(§1)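 Enzyme reactions lasted 1 hour at room temperature with test compounds between 0.003 and 10 μM, followed by 10 mM EDTA quench.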

The target in test [2] is EGFR L858R/C797S (Homo sapiens, UniProt P00533, C797S/L858R). Kind of test: Biochemical EGFR kinase assay (Lance Ultra TR-FRET), double mutant L858R/C797S. In short, it runs like this: as §1
Sequence of EGFR L858R/C797S (P00533 25-1210 C797S/L858R): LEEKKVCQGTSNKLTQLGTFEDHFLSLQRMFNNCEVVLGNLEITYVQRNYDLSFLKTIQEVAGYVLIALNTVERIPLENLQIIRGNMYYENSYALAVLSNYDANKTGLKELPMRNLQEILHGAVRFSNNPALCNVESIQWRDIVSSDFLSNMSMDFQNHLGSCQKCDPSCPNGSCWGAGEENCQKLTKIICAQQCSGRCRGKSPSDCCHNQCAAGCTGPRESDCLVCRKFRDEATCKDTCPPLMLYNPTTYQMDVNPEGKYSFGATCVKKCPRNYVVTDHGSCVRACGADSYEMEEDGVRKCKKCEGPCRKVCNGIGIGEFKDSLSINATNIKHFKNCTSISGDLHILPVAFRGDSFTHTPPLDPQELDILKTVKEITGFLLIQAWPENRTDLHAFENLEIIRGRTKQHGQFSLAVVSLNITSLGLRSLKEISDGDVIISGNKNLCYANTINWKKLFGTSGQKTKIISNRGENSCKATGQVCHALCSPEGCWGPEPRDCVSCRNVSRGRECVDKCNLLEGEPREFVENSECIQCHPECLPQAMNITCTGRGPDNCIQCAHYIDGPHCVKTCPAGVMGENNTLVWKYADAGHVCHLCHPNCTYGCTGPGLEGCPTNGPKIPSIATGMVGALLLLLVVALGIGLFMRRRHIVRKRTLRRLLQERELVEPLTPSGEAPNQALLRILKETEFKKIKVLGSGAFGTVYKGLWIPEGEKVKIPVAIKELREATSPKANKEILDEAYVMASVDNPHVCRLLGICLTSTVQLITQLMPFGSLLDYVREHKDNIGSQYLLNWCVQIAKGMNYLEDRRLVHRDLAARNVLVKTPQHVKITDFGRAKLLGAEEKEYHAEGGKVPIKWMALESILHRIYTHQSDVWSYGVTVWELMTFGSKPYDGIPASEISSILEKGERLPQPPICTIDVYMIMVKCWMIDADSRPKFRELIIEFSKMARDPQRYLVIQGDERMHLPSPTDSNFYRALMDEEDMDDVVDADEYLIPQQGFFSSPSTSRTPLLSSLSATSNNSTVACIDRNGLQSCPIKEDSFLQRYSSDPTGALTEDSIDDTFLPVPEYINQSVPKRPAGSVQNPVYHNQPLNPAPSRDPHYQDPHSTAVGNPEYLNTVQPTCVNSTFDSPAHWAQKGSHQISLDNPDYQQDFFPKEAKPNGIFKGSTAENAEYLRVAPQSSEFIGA
(In TR-FRET formats the signal depends on donor and acceptor labels being close together.)

For test [3], the target named is EGFR wildtype (WT) (Homo sapiens, UniProt P00533). Kind of test: Biochemical EGFR kinase assay (Lance Ultra TR-FRET), wildtype. In short, it runs like this: as §1
Sequence of EGFR wildtype (WT) (P00533 25-1210): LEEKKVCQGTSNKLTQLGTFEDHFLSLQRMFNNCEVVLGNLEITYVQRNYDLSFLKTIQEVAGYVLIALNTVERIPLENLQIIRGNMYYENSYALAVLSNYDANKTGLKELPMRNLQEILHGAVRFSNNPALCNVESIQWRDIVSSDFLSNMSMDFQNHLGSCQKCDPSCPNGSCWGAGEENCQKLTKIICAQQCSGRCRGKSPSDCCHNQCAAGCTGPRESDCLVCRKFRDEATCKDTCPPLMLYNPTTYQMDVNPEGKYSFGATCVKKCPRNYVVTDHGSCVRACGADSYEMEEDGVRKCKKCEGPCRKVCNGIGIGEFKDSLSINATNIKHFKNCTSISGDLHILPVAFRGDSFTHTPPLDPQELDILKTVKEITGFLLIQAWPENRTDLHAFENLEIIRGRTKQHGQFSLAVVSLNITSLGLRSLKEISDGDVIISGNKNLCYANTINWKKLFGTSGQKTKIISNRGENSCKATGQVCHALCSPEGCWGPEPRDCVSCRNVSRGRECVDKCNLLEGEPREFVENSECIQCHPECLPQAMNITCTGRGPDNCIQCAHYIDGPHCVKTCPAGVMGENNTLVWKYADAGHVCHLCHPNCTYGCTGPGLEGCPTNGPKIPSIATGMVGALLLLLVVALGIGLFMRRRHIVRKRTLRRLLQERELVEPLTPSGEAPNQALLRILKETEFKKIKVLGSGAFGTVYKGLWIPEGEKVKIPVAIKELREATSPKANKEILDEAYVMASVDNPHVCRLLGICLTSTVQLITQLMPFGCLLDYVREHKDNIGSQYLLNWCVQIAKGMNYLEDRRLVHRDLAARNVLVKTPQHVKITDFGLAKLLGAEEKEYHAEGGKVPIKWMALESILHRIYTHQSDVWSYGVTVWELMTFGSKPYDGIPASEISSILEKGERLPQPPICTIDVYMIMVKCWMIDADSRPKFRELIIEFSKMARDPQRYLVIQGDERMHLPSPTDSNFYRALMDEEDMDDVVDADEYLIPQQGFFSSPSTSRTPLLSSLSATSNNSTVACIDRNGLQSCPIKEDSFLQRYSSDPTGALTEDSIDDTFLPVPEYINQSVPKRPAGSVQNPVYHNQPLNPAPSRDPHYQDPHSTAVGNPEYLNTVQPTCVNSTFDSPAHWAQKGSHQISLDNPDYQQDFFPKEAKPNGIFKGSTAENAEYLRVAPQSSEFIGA
Test [4] has as its target EGFR del19/T790M/C797S (Homo sapiens, UniProt P00533, C797S/DEL746-750/T790M). The test can be described thus: Biochemical EGFR kinase assay (Lance Ultra TR-FRET), triple mutant del19/T790M/C797S. In short, it runs like this:
as §1

The target in test [5] is EGFR L858R/T790M/C797S (Homo sapiens, UniProt P00533, C797S/L858R/T790M). The test can be described thus: Biochemical EGFR kinase assay (Lance Ultra TR-FRET), triple mutant L858R/T790M/C797S. The method, boiled down:
as §1

The mark [6] stands for this setting: IC50 del19/C797S (nM) 100 μM ATP, 100 μM ATP.
[7] abbreviates: Km ATP, read-out: IC50 del19/C797S (nM) Km ATP.
Where [8] appears, read: IC50 L858R/C797S (nM) 100 μM ATP, 100 μM ATP.
Setting [9] is: Km ATP, read-out: IC50 L858R/C797S (nM) Km ATP.
[10] abbreviates: IC50 WT (nM) 100 μM ATP, 100 μM ATP.
The mark [11] stands for this setting: Km ATP, read-out: IC50 WT (nM) Km ATP.
The mark [12] stands for this setting: IC50 del19/T790M/C797S (nM) 100 μM ATP, 100 μM ATP.
Where [13] appears, read: Km ATP, read-out: IC50 del19/T790M/C797S (nM) Km ATP.
Where [14] appears, read: IC50 L858R/T790M/C797S (nM) 100 μM ATP, 100 μM ATP.
Where [15] appears, read: Km ATP, read-out: IC50 L858R/T790M/C797S (nM) Km ATP.

Read-outs that look alike come from different tables or passages of the source.

Sequence of EGFR del19/T790M/C797S (P00533 with tags, fused parts or gaps DEL746-750/T790M/C797S): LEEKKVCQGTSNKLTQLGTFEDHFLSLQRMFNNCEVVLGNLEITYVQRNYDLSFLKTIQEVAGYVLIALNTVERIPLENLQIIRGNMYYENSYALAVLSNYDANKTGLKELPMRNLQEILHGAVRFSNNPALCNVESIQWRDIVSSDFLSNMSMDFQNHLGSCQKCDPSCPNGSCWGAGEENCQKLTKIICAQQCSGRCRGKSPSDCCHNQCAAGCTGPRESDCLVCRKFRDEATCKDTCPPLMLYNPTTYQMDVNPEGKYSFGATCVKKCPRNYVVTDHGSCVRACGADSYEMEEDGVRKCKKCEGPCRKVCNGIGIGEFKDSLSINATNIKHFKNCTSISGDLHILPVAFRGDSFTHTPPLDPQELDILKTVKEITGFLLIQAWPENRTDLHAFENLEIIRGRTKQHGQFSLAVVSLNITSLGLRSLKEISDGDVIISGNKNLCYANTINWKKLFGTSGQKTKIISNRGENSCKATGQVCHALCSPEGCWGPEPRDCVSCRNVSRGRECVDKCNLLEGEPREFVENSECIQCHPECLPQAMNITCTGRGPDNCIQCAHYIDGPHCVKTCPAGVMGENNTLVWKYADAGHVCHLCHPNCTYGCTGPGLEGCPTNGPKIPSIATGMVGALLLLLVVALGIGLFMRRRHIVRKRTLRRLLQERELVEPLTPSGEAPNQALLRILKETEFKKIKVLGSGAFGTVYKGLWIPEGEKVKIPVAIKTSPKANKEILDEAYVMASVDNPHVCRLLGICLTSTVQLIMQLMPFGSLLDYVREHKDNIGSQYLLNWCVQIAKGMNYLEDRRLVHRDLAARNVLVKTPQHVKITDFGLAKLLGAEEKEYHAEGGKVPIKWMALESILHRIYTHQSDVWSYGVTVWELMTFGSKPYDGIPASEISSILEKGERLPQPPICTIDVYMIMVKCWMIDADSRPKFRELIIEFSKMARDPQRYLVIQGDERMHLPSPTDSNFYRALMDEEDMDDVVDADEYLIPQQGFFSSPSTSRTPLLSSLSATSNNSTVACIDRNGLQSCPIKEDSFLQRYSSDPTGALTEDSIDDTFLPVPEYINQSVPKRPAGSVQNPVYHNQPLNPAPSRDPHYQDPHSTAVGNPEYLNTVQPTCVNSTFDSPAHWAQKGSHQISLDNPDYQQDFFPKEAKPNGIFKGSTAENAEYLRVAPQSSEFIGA
Sequence of EGFR L858R/T790M/C797S (P00533 25-1210 T790M/C797S/L858R): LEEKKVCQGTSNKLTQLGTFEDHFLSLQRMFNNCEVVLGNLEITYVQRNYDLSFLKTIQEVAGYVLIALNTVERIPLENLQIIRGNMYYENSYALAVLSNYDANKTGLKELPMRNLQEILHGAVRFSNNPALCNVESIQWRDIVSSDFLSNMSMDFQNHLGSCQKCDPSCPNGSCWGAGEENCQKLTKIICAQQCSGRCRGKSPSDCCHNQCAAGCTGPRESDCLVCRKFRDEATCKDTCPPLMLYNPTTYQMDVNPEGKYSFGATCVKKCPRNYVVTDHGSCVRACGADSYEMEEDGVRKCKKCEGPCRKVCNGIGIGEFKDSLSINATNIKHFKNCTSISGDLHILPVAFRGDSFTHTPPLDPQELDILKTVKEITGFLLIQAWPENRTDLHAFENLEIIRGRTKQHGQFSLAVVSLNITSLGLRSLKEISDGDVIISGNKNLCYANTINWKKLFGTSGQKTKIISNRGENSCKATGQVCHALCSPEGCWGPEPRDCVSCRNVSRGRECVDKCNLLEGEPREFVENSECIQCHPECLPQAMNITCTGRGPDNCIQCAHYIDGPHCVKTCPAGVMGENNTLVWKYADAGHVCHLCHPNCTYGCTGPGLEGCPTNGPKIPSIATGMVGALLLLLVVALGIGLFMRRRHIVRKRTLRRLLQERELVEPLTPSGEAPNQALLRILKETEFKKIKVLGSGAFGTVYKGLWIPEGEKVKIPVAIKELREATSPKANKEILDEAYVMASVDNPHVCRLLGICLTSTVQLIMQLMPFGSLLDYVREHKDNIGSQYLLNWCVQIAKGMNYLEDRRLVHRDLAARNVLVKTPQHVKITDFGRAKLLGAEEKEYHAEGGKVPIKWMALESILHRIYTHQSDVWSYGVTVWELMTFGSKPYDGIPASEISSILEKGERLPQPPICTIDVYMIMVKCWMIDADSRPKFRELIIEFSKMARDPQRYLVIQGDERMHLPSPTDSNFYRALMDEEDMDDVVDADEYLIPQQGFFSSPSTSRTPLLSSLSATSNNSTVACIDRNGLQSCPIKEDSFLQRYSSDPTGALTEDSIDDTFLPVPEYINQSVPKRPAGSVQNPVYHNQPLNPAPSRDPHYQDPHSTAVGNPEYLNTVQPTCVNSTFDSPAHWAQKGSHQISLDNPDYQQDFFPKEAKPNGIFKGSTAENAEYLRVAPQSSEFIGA

As for `O=S(=O)(C1CC1)n1cc(-c2nccc(Nc3cc(N[C@H]4CC[C@@H](CO)CC4)c(-c4ccn(C(F)F)n4)cn3)n2)cn1` [Example 18, ((1s,4s)-4-((2-((2-(1-(Cyclopropylsulfonyl)-1H-pyrazol-4-yl)pyrimidin-4-yl)amino)-5-(1-(difluoromethyl)-1H-pyrazol-3-yl)pyridin-4-yl)amino)cyclohexyl)methanol], the IC50 in test [1] (setting [6]) was 1.4 nM; in test [1] (setting [7]), 0.9 nM; in test [2] (setting [8]), 13 nM; in test [2] (setting [9]) it was 1.9 nM; in test [3] (setting [10]), over 10000 nM; in test [3] (setting [11]), 3 nM. Besides, the IC50 worked out at 0.4 nM in test [4] (setting [12]), 0.3 nM in test [4] (setting [13]), 0.6 nM in test [5] (setting [14]) and 0.2 nM in test [5] (setting [15]).

With `Cn1nc(-c2cnc(Nc3ccnc(-c4cnn(S(=O)(=O)C5CC5)c4)n3)cc2N[C@H]2CC[C@@H](C(C)(C)O)CC2)cc1C(F)(F)F` [Example 254, 2-((1s,4s)-4-((2-((2-(1-(Cyclopropylsulfonyl)-1H-pyrazol-4-yl)pyrimidin-4-yl)amino)-5-(1-methyl-5-(trifluoromethyl)-1H-pyrazol-3-yl)pyridin-4-yl)amino)cyclohexyl)propan-2-ol], the IC50 in test [1] (setting [6]) is 6.5 nM; in test [1] (setting [7]), 5.5 nM; in test [2] (setting [8]), 33.5 nM; in test [2] (setting [9]) it was 18.5 nM; in test [3] (setting [10]), over 10000 nM; in test [3] (setting [11]) it was 12.9 nM. For the same compound, the IC50 in test [4] (setting [12]) worked out at 3.9 nM; in test [4] (setting [13]) it was 3.7 nM; in test [5] (setting [14]), 6.5 nM; in test [5] (setting [15]), 1.7 nM.

`O=S(=O)(C1CC1)n1cc(-c2nccc(Nc3cc(NC[C@H]4C[C@H](CO)C4)c(-c4ccn(C(F)F)n4)cn3)n2)cn1` [Example 189, ((1r,3r)-3-(((2-((2-(1-(Cyclopropylsulfonyl)-1H-pyrazol-4-yl)pyrimidin-4-yl)amino)-5-(1-(difluoromethyl)-1H-pyrazol-3-yl)pyridin-4-yl)amino)methyl)cyclobutyl)methanol]: the IC50 in test [1] (setting [6]) was 1.8 nM; in test [1] (setting [7]) it was 1.2 nM; in test [2] (setting [8]) it was 27.1 nM; in test [2] (setting [9]), 3.1 nM; in test [3] (setting [10]) it was over 10000 nM; in test [3] (setting [11]) it was 20.1 nM. Besides, the IC50 was found to be 0.4 nM in test [4] (setting [12]), 0.5 nM in test [4] (setting [13]), 0.2 nM in test [5] (setting [14]) and 0.3 nM in test [5] (setting [15]).

For `CC1(N)CCC(Oc2cc(Nc3ccnc(-c4cnn(S(=O)(=O)C5CC5)c4)n3)ncc2-c2cnn(C(F)F)c2)CC1` (stereo not drawn) [Example 74, N-(4-((4-Amino-4-methylcyclohexyl)oxy)-5-(1-(difluoromethyl)-1H-pyrazol-4-yl)pyridin-2-yl)-2-(1-(cyclopropylsulfonyl)-1H-pyrazol-4-yl)pyrimidin-4-amine], the IC50 is 103 nM in test [1] (setting [6]); 1380 nM in test [2] (setting [8]); over 10000 nM in test [3] (setting [10]); 8.3 nM in test [4] (setting [12]); 25.2 nM in test [5] (setting [14]).

On to `CC(C)(O)c1nc(-c2cnc(Nc3ccnc(-c4cnn(S(=O)(=O)C5CC5)c4)n3)cc2N[C@H]2CCC[C@H](O)C2)cs1` [Example 91, (1S,3S)-3-((2-((2-(1-(Cyclopropylsulfonyl)-1H-pyrazol-4-yl)pyrimidin-4-yl)amino)-5-(2-(2-hydroxypropan-2-yl)thiazol-4-yl)pyridin-4-yl)amino) cyclohexan-1-ol], for which the IC50 in test [1] (setting [6]) is 0.8 nM; in test [2] (setting [8]) it was 8.7 nM; in test [3] (setting [10]) it was over 10000 nM; in test [4] (setting [12]), 1 nM; in test [5] (setting [14]), 2.3 nM.

As to `Cn1nc(-c2cnc(Nc3ccnc(-c4cnn(S(=O)(=O)C5CC5)c4)n3)cc2N[C@H]2CC[C@@H](NCCF)CC2)cc1C(F)(F)F` [Example 255, N^2-(2-(1-(Cyclopropylsulfonyl)-1H-pyrazol-4-yl)pyrimidin-4-yl)-N^4-((1s,4s)-4-((2-fluoroethyl)amino)cyclohexyl)-5-(1-methyl-5-(trifluoromethyl)-1H-pyrazol-3-yl)pyridine-2,4-diamine], the IC50 in test [1] (setting [6]) was 2.4 nM; in test [1] (setting [7]), 1.1 nM; in test [2] (setting [8]) it was 25.4 nM; in test [2] (setting [9]), 5.3 nM; in test [3] (setting [10]) it was over 10000 nM; in test [3] (setting [11]), 8.2 nM. The IC50 in test [4] (setting [12]) turned out to be 0.8 nM; in test [4] (setting [13]), 0.6 nM; in test [5] (setting [14]), 1.2 nM; in test [5] (setting [15]), 0.2 nM.

Consider `O=S(=O)(C1CC1)n1cc(-c2nccc(Nc3cc(NC[C@H]4CC[C@@H](O)C4)c(-c4ccn(CC(F)(F)F)n4)cn3)n2)cn1` [Example 268, (1R,3S)-3-(((2-((2-(1-(Cyclopropylsulfonyl)-1H-pyrazol-4-yl)pyrimidin-4-yl)amino)-5-(1-(2,2,2-trifluoroethyl)-1H-pyrazol-3-yl)pyridin-4-yl)amino)methyl)cyclopentan-1-ol], for which the IC50 in test [1] (setting [6]) was 200 nM; in test [1] (setting [7]) it was 7.6 nM; in test [2] (setting [8]) it was 10.7 nM; in test [2] (setting [9]) it was 3.2 nM; in test [3] (setting [10]) it was over 10000 nM; in test [3] (setting [11]), 74.4 nM. Further, the IC50 in test [4] (setting [12]) was found to be 0.6 nM; in test [4] (setting [13]), 2.5 nM; in test [5] (setting [14]), 0.6 nM; in test [5] (setting [15]), 0.3 nM.

For `O=S(=O)(C1CC1)n1cc(-c2nccc(Nc3cc(NC4CCC(NCCO)CC4)c(-c4csc(C(F)(F)F)n4)cn3)n2)cn1` (stereo not drawn) [Example 97, 2-((4-((2-((2-(1-(Cyclopropylsulfonyl)-1H-pyrazol-4-yl)pyrimidin-4-yl)amino)-5-(2-(trifluoromethyl)thiazol-4-yl)pyridin-4-yl)amino)cyclohexyl)amino)ethan-1-ol], the IC50 in test [1] (setting [6]) was 18 nM; in test [2] (setting [8]) it was 160 nM; in test [3] (setting [10]), over 10000 nM; in test [4] (setting [12]) it was 0.7 nM; in test [5] (setting [14]) it was 3.2 nM.

For the compound `CNC1CCC(Nc2cc(Nc3ccnc(-c4cnn(S(=O)(=O)C5CC5)c4)n3)ncc2-c2ccn(C(F)F)n2)CC1` (stereo not drawn) [Example 16, N^2-(2-(1-(Cyclopropylsulfonyl)-1H-pyrazol-4-yl)pyrimidin-4-yl)-5-(1-(difluoromethyl)-1H-pyrazol-3-yl)-N^4-((1s,4s)-4-(methylamino)cyclohexyl)pyridine-2,4-diamine], the IC50 turned out to be 2 nM in test [1] (setting [6]); 2.1 nM in test [2] (setting [8]); 3390 nM in test [3] (setting [10]); 0.3 nM in test [4] (setting [12]); 0.3 nM in test [5] (setting [14]).

As for `O=S(=O)(C1CC1)n1cc(-c2nccc(Nc3cc(N[C@H]4CC[C@@H](O)CC4)c(-c4csc(C(F)(F)F)n4)cn3)n2)cn1` [Example 81, (1s,4s)-4-((2-((2-(1-(Cyclopropylsulfonyl)-1H-pyrazol-4-yl)pyrimidin-4-yl)amino)-5-(2-(trifluoromethyl)thiazol-4-yl)pyridin-4-yl)amino)cyclohexan-1-ol], the IC50 stood at 3.4 nM in test [1] (setting [6]); 4.8 nM in test [2] (setting [8]); 1240 nM in test [3] (setting [10]); 1.1 nM in test [4] (setting [12]); 1.2 nM in test [5] (setting [14]).

In the case of `O=S(=O)(C1CC1)n1cc(-c2nccc(Nc3cc(N[C@H]4CC[C@@H](NCCF)CC4)c(-c4ccn(CC(F)F)n4)cn3)n2)cn1` [Example 242, N^2-(2-(1-(Cyclopropylsulfonyl)-1H-pyrazol-4-yl)pyrimidin-4-yl)-5-(1-(2,2-difluoroethyl)-1H-pyrazol-3-yl)-N^4-((1s,4s)-4-((2-fluoroethyl)amino)cyclohexyl)pyridine-2,4-diamine], the IC50 in test [1] (setting [6]) is 0.8 nM; in test [1] (setting [7]), 0.4 nM; in test [2] (setting [8]) it was 20.9 nM; in test [2] (setting [9]) it was 1.2 nM; in test [3] (setting [10]) it was 6320 nM; in test [3] (setting [11]) it was 6 nM. For the same compound, the IC50 in test [4] (setting [12]) came out at 0.2 nM; in test [4] (setting [13]), 0.1 nM; in test [5] (setting [14]), 0.2 nM; in test [5] (setting [15]) it was 0.1 nM.

On to `C[C@]1(O)CC[C@@H](Nc2nc(Nc3ccnc(-c4cnn(S(=O)(=O)C5CC5)c4)c3)ncc2-c2ccn(CC(F)(F)F)n2)CC1` [Example 360, (1s,4s)-4-((2-((2-(1-(Cyclopropylsulfonyl)-1H-pyrazol-4-yl)pyridin-4-yl)amino)-5-(1-(2,2,2-trifluoroethyl)-1H-pyrazol-3-yl)pyrimidin-4-yl)amino)-1-methylcyclohexan-1-ol], for which the IC50 is 9.5 nM in test [1] (Km ATP, read-out: IC50 del19/C797S, Km ATP); 16.7 nM in test [2] (Km ATP, read-out: IC50 L858R/C797S, Km ATP); 140 nM in test [3] (Km ATP, read-out: IC50 WT, Km ATP); 0.5 nM in test [4] (Km ATP, read-out: IC50 del19/T790M/C797S, Km ATP); 0.9 nM in test [5] (Km ATP, read-out: IC50 L858R/T790M/C797S, Km ATP).
